Legend:
[1] = Antagonist activity at peripheral muscarinic M3 receptor in guinea pig longitudinal ileum assessed as effect on arecaidin propargyl ester-induced contraction after 1 hr; type: functional, tissue-based, Cavia porcellus
[2] = target: T1, Muscarinic acetylcholine receptor M1 (Homo sapiens, UniProt P11229); test: Displacement of [3H]N-methylscopolamine chloride from human cloned muscarinic M1 receptor expressed in CHOK1 cells; type: cell-based, CHO-K1
T1 sequence (P11229 whole entry): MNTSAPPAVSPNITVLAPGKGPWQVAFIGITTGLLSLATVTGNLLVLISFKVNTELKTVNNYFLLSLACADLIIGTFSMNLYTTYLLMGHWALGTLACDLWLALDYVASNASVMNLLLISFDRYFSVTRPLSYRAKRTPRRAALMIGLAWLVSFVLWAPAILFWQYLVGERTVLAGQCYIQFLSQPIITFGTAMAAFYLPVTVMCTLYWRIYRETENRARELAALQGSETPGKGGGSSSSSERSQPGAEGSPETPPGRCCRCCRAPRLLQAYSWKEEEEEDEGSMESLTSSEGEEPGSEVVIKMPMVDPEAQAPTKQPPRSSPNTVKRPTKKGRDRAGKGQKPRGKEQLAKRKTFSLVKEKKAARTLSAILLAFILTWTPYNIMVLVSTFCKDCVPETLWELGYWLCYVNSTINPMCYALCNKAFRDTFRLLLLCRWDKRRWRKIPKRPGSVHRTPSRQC

[3] = Antagonist activity at peripheral muscarinic M2 receptor in guinea pig left atrium assessed as effect on arecaidin propargyl ester-induced contraction after 1 hr; type: functional, tissue-based; details: Cavia porcellus, Cardiac atrium, read-out: pA2 (converted)
[4] = target: T2, Muscarinic acetylcholine receptor M4 (Homo sapiens, UniProt P08173); test: Displacement of [3H]N-methylscopolamine chloride from human cloned muscarinic M4 receptor expressed in CHOK1 cells; type: cell-based, CHO-K1
T2 sequence (P08173 whole entry): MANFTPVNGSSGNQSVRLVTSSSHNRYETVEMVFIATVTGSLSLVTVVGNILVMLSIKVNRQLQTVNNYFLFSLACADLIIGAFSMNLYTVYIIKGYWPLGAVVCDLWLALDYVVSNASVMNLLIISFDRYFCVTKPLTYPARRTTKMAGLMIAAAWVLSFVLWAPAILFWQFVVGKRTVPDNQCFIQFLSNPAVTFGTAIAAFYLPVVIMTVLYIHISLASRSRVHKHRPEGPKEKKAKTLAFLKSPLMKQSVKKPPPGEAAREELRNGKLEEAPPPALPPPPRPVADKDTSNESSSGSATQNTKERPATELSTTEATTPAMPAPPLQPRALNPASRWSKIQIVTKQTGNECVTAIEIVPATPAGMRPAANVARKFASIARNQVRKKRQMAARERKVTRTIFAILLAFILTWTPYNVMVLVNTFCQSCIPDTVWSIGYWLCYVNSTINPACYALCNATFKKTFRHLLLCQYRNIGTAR

[5] = Antagonist activity at peripheral muscarinic M4 receptor in rabbit vas deferens assessed as effect on McN-A-343-induced contraction after 1 hr; type: functional, tissue-based; details: Oryctolagus cuniculus, read-out: pA2 (converted)
[6] = target: Muscarinic acetylcholine receptor M3 (Homo sapiens, UniProt P20309); test: Displacement of [3H]N-methylscopolamine chloride from human cloned muscarinic M3 receptor expressed in CHOK1 cells; type: cell-based, CHO-K1
Chain of Muscarinic acetylcholine receptor M3 (P20309 whole entry): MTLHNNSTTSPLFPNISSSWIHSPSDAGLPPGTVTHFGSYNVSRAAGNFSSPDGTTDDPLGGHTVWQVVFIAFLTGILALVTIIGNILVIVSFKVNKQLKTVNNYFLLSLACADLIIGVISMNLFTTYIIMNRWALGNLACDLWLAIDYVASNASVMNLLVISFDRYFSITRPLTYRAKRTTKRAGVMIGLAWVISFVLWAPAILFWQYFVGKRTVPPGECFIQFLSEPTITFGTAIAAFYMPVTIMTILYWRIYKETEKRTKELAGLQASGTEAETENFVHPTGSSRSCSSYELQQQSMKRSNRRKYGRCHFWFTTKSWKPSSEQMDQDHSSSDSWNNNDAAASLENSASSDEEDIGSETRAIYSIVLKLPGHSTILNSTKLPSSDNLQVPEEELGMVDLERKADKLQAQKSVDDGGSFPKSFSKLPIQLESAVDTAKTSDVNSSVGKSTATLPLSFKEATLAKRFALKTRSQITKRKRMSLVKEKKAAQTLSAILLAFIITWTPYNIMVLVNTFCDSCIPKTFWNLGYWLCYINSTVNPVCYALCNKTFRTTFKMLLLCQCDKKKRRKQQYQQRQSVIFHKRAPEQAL

[7] = target: T3, Muscarinic acetylcholine receptor M2 (Homo sapiens, UniProt P08172); test: Displacement of [3H]N-methylscopolamine chloride from human cloned muscarinic M2 receptor expressed in CHOK1 cells; type: cell-based, CHO-K1
T3 sequence (P08172 whole entry): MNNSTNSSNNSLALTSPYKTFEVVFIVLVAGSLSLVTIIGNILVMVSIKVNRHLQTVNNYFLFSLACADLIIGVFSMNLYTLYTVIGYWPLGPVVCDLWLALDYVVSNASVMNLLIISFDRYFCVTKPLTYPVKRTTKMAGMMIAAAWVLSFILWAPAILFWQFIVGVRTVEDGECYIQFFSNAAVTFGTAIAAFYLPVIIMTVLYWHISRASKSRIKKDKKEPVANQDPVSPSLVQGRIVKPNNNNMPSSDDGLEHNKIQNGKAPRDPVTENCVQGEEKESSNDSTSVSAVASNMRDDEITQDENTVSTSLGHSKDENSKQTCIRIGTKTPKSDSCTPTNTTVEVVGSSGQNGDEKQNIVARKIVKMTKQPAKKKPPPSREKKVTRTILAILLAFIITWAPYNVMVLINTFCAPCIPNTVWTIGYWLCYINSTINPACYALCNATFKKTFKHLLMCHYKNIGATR

Row | SMILES | pA2 [1] | Ki [2] | Kb [3] | Ki [4] | Kb [5] | Ki [6] | Ki [7]
1 | CN(C)[C@@H]1CCCC[C@H]1N(C)CC(=O)N1c2ccccc2C(=O)Nc2cccnc21.O=C(O)C(=O)O.O=C(O)C(=O)O | 7.76 |  |  |  |  |  | 
2 | CN(C)[C@H]1CCCC[C@@H]1N(C)CC(=O)N1c2ccccc2C(=O)Nc2cccnc21.O=C(O)C(=O)O.O=C(O)C(=O)O | 7.58 |  |  |  |  |  | 
3 | CN(C)[C@@H]1CCCC[C@@H]1N(C)CC(=O)N1c2ccccc2C(=O)Nc2cccnc21.O=C(O)C(=O)O.O=C(O)C(=O)O | 7.57 |  |  |  |  |  | 
4 | CN(C)[C@H]1CCCC[C@H]1N(C)CC(=O)N1c2ccccc2C(=O)Nc2cccnc21.O=C(O)C(=O)O.O=C(O)C(=O)O | 7.64 |  |  |  |  |  | 
5 | CN1CCN(CC(=O)N2c3ccccc3C(=O)Nc3cccnc32)[C@@H]2CCCC[C@H]21 (relative stereo) | 6.47 | 2290 nM | 87.1 nM | 6610 nM | 79.4 nM | > 10000 nM | 1000 nM
6 | CN1CCN(CC(=O)N2c3ccccc3C(=O)Nc3cccnc32)[C@@H]2CCCC[C@@H]21 (relative stereo) | 6.01 | 1450 nM | 741 nM | 2450 nM | 60.3 nM | > 10000 nM | 646 nM
7 | CN1CCN(CC(=O)N2c3ccccc3C(=O)Nc3cccnc32)CC1 [PIRENZEPINE] | 6.88 |  | 339 nM |  | 8.91 nM |  | 
8 | CN(CCCCCCCCN(C)CCCCCCN(CC(=O)N1c2ccccc2C(=O)Nc2cccnc21)CC(=O)N1c2ccccc2C(=O)Nc2cccnc21)CCCCCCNCC(=O)N1c2ccccc2C(=O)Nc2cccnc21 [TRIPITRAMINE] | 6.55 | 3.55 nM |  | 11.5 nM | 11.2 nM | 148 nM | 

— ChEMBL document CHEMBL1155803 (Bioorg Med Chem, 2008)
